Assays:
Progesterone receptor = target: T1, Progesterone receptor (Homo sapiens, UniProt P06401); test: Antagonist activity at PR (unknown origin)
T1 sequence (P06401 whole entry): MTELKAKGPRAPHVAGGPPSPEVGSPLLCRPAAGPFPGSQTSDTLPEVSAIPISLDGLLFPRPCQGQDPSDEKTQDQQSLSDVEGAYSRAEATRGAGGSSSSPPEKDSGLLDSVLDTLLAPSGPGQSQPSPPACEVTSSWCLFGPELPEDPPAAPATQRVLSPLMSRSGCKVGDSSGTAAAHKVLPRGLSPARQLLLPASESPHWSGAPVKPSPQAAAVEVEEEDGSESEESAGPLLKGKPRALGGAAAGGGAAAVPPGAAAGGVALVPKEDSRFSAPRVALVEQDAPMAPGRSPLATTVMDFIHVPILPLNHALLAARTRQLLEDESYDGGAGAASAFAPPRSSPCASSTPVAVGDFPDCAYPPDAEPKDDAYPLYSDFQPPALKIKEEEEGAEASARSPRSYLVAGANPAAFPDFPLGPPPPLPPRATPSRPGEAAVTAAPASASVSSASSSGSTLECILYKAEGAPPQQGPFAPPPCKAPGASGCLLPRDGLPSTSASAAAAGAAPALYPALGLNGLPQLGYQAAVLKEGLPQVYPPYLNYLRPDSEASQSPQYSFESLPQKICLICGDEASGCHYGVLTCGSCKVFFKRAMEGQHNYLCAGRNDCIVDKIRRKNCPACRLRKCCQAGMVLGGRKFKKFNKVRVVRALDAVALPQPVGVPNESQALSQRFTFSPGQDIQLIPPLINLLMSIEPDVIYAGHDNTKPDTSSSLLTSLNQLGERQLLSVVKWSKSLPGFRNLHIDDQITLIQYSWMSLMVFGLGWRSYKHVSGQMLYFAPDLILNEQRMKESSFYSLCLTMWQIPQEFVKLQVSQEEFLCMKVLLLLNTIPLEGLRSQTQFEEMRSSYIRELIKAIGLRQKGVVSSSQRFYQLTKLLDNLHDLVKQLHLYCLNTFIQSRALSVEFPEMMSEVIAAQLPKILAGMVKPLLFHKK

[1] = Dissociation constant, pKa of the compound; assay type: physicochemical
CYP2C9 = CYP2C9 (Homo sapiens, UniProt P11712); test: Inhibition of CYP2C9 (unknown origin) at 3 uM; assay type: ADME
CYP2C9, sequence (P11712 whole entry): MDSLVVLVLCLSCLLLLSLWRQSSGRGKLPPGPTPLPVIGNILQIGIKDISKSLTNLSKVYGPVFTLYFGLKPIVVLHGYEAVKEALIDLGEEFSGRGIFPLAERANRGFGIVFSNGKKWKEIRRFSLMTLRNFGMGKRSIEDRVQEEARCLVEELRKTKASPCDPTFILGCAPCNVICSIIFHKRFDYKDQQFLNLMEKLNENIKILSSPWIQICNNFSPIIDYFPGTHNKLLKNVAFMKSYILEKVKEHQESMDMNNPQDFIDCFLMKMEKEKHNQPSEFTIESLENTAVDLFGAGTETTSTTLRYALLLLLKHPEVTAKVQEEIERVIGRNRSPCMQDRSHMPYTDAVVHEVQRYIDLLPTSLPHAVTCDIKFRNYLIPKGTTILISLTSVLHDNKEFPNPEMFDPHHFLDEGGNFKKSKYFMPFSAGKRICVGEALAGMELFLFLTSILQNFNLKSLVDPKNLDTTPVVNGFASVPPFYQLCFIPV

Structure (SMILES)	IC50 (Progesterone receptor) [nM]	pKa [1]	inhibition at 3 µM (CYP2C9) [%]
COc1cc(NS(=O)(=O)C(F)(F)F)cc(OC)c1Oc1ccc(C#N)c(Cl)c1	175	4.5	95
COc1cc(NS(C)(=O)=O)cc(OC)c1Oc1ccc(C#N)c(Cl)c1	26	8.5	9
N#Cc1ccc(O[C@H]2CC[C@H](NS(=O)(=O)C(F)(F)F)CC2)cc1Cl	43		77
CS(=O)(=O)N[C@H]1CC[C@H](Oc2ccc(C#N)c(Cl)c2)CC1	107		0

From ChEMBL document CHEMBL3817830, “Discovery of a novel binding pocket for CYP 2C9 inhibitors: crystallography, pharmacophore modelling and inhibitor SAR” (Medchemcomm, 2016)
